# From patent publication US9695155B2, “Herbicidal substituted pyrimidinyloxy benzene compounds” (E. I. DU PONT DE NEMOURS AND COMPANY, priority 2013, dated 2017)
# Legend:
# barnyardgrass [1] = assay: Test A preemergence; format: in vivo, Echinochloa crus-galli; conditions: for Plant response rating, Barnyardgrass: 31 g ai/ha, 0 to 100 scale where 0 is no effect and 100 is complete control, visual, approximately 10 days; for Barnyardgrass plant response rating (0 to 100 scale, 0 is no effect, 100 is complete control): 125 g ai/ha
# Procedure, shortened: (§1)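 Injury scores run from 0, no effect, to 100, complete control, judged by eye against untreated plants roughly 10 days after treatment. Chemicals carried a surfactant in a non-phytotoxic solvent and went onto loam–sand soil preemergence or onto one- to two-leaf seedlings postemergence.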
# kochia [2] = assay: Test A preemergence; format: in vivo, Kochia scoparia; conditions: for Plant response rating, Kochia: 31 g ai/ha, 0 to 100 scale where 0 is no effect and 100 is complete control, visual, approximately 10 days; for Kochia plant response rating (0 to 100 scale): 125 g ai/ha
# Procedure, shortened: as §1
# ragweed [3] = assay: Test A preemergence; format: in vivo, Ambrosia elatior; conditions: for Plant response rating, Ragweed: 31 g ai/ha, 0 to 100 scale where 0 is no effect and 100 is complete control, visual, approximately 10 days; for Ragweed plant response rating (0 to 100 scale): 125 g ai/ha
# Procedure, shortened: as §1
# Italian ryegrass [4] = assay: Test A preemergence; format: in vivo, Lolium multiflorum; conditions: for Plant response rating, Ryegrass, Italian: 31 g ai/ha, 0 to 100 scale where 0 is no effect and 100 is complete control, visual, approximately 10 days; for Ryegrass, Italian plant response rating (0 to 100 scale): 125 g ai/ha
# Procedure, shortened: as §1
# giant foxtail [5] = assay: Test A preemergence; format: in vivo, Setaria faberii; conditions: for Plant response rating, Foxtail, Giant: 31 g ai/ha, 0 to 100 scale where 0 is no effect and 100 is complete control, visual, approximately 10 days; for Foxtail, Giant plant response rating (0 to 100 scale): 125 g ai/ha
# Procedure, shortened: as §1
# pigweed [6] = assay: Test A preemergence; format: in vivo, Amaranthus retroflexus; conditions: for Plant response rating, Pigweed: 31 g ai/ha, 0 to 100 scale where 0 is no effect and 100 is complete control, visual, approximately 10 days; for Pigweed plant response rating (0 to 100 scale): 125 g ai/ha
# Procedure, shortened: as §1
# barnyardgrass [7] = assay: Test A postemergence; format: in vivo, Echinochloa crus-galli; conditions: 0 to 100 scale, 0 no effect, 100 complete control
# Procedure, shortened: as §1
# kochia [8] = assay: Test A postemergence; format: in vivo, Kochia scoparia; conditions: 0 to 100 scale, 0 no effect, 100 complete control
# Procedure, shortened: as §1
# ragweed [9] = assay: Test A postemergence; format: in vivo, Ambrosia elatior; conditions: 0 to 100 scale, 0 no effect, 100 complete control
# Procedure, shortened: as §1
# Italian ryegrass [10] = assay: Test A postemergence; format: in vivo, Lolium multiflorum; conditions: 0 to 100 scale, 0 no effect, 100 complete control
# Procedure, shortened: as §1
# giant foxtail [11] = assay: Test A postemergence; format: in vivo, Setaria faberii; conditions: 0 to 100 scale, 0 no effect, 100 complete control
# Procedure, shortened: as §1
# pigweed [12] = assay: Test A postemergence; format: in vivo, Amaranthus retroflexus; conditions: 0 to 100 scale, 0 no effect, 100 complete control
# Procedure, shortened: as §1
# wheat = assay: Test A postemergence; format: in vivo, Triticum aestivum; conditions: 0 to 100 scale, 0 no effect, 100 complete control
# Procedure, shortened: as §1
# corn = assay: Test A postemergence; format: in vivo, Zea mays; conditions: 0 to 100 scale, 0 no effect, 100 complete control
# Procedure, shortened: as §1
# blackgrass = assay: Test A postemergence; format: in vivo, Alopecurus myosuroides; conditions: 0 to 100 scale, 0 no effect, 100 complete control
# Procedure, shortened: as §1
# galium = assay: Test A postemergence; format: in vivo, Galium aparine; conditions: 0 to 100 scale, 0 no effect, 100 complete control
# Procedure, shortened: as §1
# rice = assay: Test B flooded paddy test; format: in vivo, Oryza sativa; conditions: Flood, 250 g ai/ha; 0 to 100 scale where 0 is no effect and 100 is complete control
# Procedure, shortened: (§2)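 Seedlings are raised to two leaves, flooded to a depth of 3 cm and dosed by adding the compound to the floodwater. Water level is kept constant, and plants are scored visually versus controls 13–15 days later (0 = no effect, 100 = complete control).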
# sedge, umbrella = assay: Test B flooded paddy test; format: in vivo, Cyperus difformis; conditions: Flood, 250 g ai/ha; 0 to 100 scale where 0 is no effect and 100 is complete control
# Procedure, shortened: as §2
# Heteranthera limosa = assay: Test B flooded paddy test; format: in vivo; conditions: Flood, 250 g ai/ha; 0 to 100 scale where 0 is no effect and 100 is complete control
# Procedure, shortened: as §2
# barnyardgrass [13] = assay: Test B flooded paddy test; format: in vivo, Echinochloa crus-galli; conditions: Flood, 250 g ai/ha; 0 to 100 scale where 0 is no effect and 100 is complete control
# Procedure, shortened: as §2
Structure (SMILES),"Plant response rating, Barnyardgrass (barnyardgrass [1])","Barnyardgrass plant response rating (0 to 100 scale, 0 is no effect, 100 is complete control) (barnyardgrass [1])","Plant response rating, Kochia (kochia [2])",Kochia plant response rating (0 to 100 scale) (kochia [2]),"Plant response rating, Ragweed (ragweed [3])",Ragweed plant response rating (0 to 100 scale) (ragweed [3]),"Plant response rating, Ryegrass, Italian (Italian ryegrass [4])","Ryegrass, Italian plant response rating (0 to 100 scale) (Italian ryegrass [4])","Plant response rating, Foxtail, Giant (giant foxtail [5])","Foxtail, Giant plant response rating (0 to 100 scale) (giant foxtail [5])","Plant response rating, Pigweed (pigweed [6])",Pigweed plant response rating (0 to 100 scale) (pigweed [6]),"Plant response rating, Barnyardgrass (barnyardgrass [7]; 31 g ai/ha)","Plant response rating, Barnyardgrass (barnyardgrass [7]; 125 g ai/ha)","Plant response rating, Kochia (kochia [8]; 31 g ai/ha)","Plant response rating, Kochia (kochia [8]; 125 g ai/ha)","Plant response rating, Ragweed (ragweed [9]; 31 g ai/ha)","Plant response rating, Ragweed (ragweed [9]; 125 g ai/ha)","Plant response rating, Ryegrass, Italian (Italian ryegrass [10]; 31 g ai/ha)","Plant response rating, Ryegrass, Italian (Italian ryegrass [10]; 125 g ai/ha)",other results
Cc1cc(C(F)(F)F)nn1-c1ccccc1Oc1ncc(Cl)cn1 [Compound 266],0,0,0,0,0,0,0,0,0,0,0,0,0,0,0,0,0,0,0,0,"Plant response rating, Foxtail, Giant (giant foxtail [11]; 31 g ai/ha): 0; Plant response rating, Foxtail, Giant (giant foxtail [11]; 125 g ai/ha): 0; Plant response rating, Pigweed (pigweed [12]; 31 g ai/ha): 0; Plant response rating, Pigweed (pigweed [12]; 125 g ai/ha): 0; Plant response rating, Wheat (wheat; 31 g ai/ha): 0; Plant response rating, Wheat (wheat; 125 g ai/ha): 0; Plant response rating, Corn (corn; 31 g ai/ha): 0; Plant response rating, Corn (corn; 125 g ai/ha): 0; Plant response rating, Blackgrass (blackgrass; 31 g ai/ha): 0; Plant response rating, Blackgrass (blackgrass; 125 g ai/ha): 0; Plant response rating, Galium (galium; 31 g ai/ha): 0; Plant response rating, Galium (galium; 125 g ai/ha): 0; Plant response rating, Rice (rice): 0; Plant response rating, Sedge, Umbrella (sedge, umbrella): 0; Plant response rating, Ducksalad (Heteranthera limosa): 0; Plant response rating, Barnyardgrass (barnyardgrass [13]): 0"
FC(F)(F)c1cnn(-c2c(Oc3ncc(Cl)cn3)cccc2-c2ncon2)c1 [Compound 279],0,10,40,90,0,10,0,0,40,50,90,100,0,30,40,90,20,40,0,50,"Plant response rating, Foxtail, Giant (giant foxtail [11]; 31 g ai/ha): 10; Plant response rating, Foxtail, Giant (giant foxtail [11]; 125 g ai/ha): 50; Plant response rating, Pigweed (pigweed [12]; 31 g ai/ha): 50; Plant response rating, Pigweed (pigweed [12]; 125 g ai/ha): 80; Plant response rating, Wheat (wheat; 31 g ai/ha): 0; Plant response rating, Wheat (wheat; 125 g ai/ha): 30; Plant response rating, Corn (corn; 31 g ai/ha): 10; Plant response rating, Corn (corn; 125 g ai/ha): 10; Plant response rating, Blackgrass (blackgrass; 31 g ai/ha): 10; Plant response rating, Blackgrass (blackgrass; 125 g ai/ha): 40; Plant response rating, Galium (galium; 31 g ai/ha): 20; Plant response rating, Galium (galium; 125 g ai/ha): 80; Plant response rating, Rice (rice): 50; Plant response rating, Sedge, Umbrella (sedge, umbrella): 90; Plant response rating, Ducksalad (Heteranthera limosa): 90; Plant response rating, Barnyardgrass (barnyardgrass [13]): 75"
